#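 The concentration for 50% growth inhibition is given as GI50. TGI marks complete inhibition of growth.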
# Assays:
# Assay in all cases: inhibition of tumour cell growth, NCI panel, 384-well format
# 786-0 renal = tested on: 786-0 renal
# A498 renal = tested on: A498 renal
# A549 NSCLC = tested on: A549 NSCLC
# ACHN renal = tested on: ACHN renal
# BT-549 breast = tested on: BT-549 breast
# CAKI-1 renal = tested on: CAKI-1 renal
# CCRF-CEM leukemia = tested on: CCRF-CEM leukemia
# DU-145 prostate = tested on: DU-145 prostate
# HCT-116 colon = tested on: HCT-116 colon
# HCT-15 colon = tested on: HCT-15 colon
# HL-60(TB) leukemia = tested on: HL-60(TB) leukemia
# HOP-62 NSCLC = tested on: HOP-62 NSCLC
# HOP-92 NSCLC = tested on: HOP-92 NSCLC
# HS 578T breast = tested on: HS 578T breast
# HT29 colon = tested on: HT29 colon
# IGROV1 ovarian = tested on: IGROV1 ovarian
# K-562 leukemia = tested on: K-562 leukemia
# KM12 colon = tested on: KM12 colon
# M14 melanoma = tested on: M14 melanoma
# MALME-3M melanoma = tested on: MALME-3M melanoma
# MCF7 breast = tested on: MCF7 breast
# MDA-MB-231 breast = tested on: MDA-MB-231 breast
# MDA-MB-435 melanoma = tested on: MDA-MB-435 melanoma
# MDA-MB-468 breast = tested on: MDA-MB-468 breast
# MOLT-4 leukemia = tested on: MOLT-4 leukemia
# NCI-H226 lung = tested on: NCI-H226 lung
# NCI-H23 lung = tested on: NCI-H23 lung
# NCI-H322M lung = tested on: NCI-H322M lung
# NCI-H522 lung = tested on: NCI-H522 lung
# NCI/ADR-RES ovarian = tested on: NCI/ADR-RES ovarian
# OVCAR-3 ovarian = tested on: OVCAR-3 ovarian
# OVCAR-4 ovarian = tested on: OVCAR-4 ovarian
# OVCAR-5 ovarian = tested on: OVCAR-5 ovarian
# OVCAR-8 ovarian = tested on: OVCAR-8 ovarian
# PC-3 prostate = tested on: PC-3 prostate
# RPMI-8226 leukemia = tested on: RPMI-8226 leukemia
# RXF 393 renal = tested on: RXF 393 renal
# SF-268 CNS = tested on: SF-268 CNS
# SF-295 CNS = tested on: SF-295 CNS
# SF-539 CNS = tested on: SF-539 CNS
# SK-MEL-2 melanoma = tested on: SK-MEL-2 melanoma
# SK-MEL-28 melanoma = tested on: SK-MEL-28 melanoma
# SK-OV-3 ovarian = tested on: SK-OV-3 ovarian
# SN12C renal = tested on: SN12C renal
# SNB-19 CNS = tested on: SNB-19 CNS
# SNB-75 CNS = tested on: SNB-75 CNS
# SW-620 colon = tested on: SW-620 colon
# T-47D breast = tested on: T-47D breast
# TK-10 renal = tested on: TK-10 renal
# U251 glioblastoma = tested on: U251 glioblastoma
# UACC-257 melanoma = tested on: UACC-257 melanoma
# UACC-62 melanoma = tested on: UACC-62 melanoma
# UO-31 renal = tested on: UO-31 renal
smiles,measurement,setting,value
CCCCC(=O)OCC(=O)[C@]1(O)Cc2c(O)c3c(c(O)c2[C@@H](OC2CC(NC(=O)C(F)(F)F)C(O)C(C)O2)C1)C(=O)c1c(OC)cccc1C3=O (some centres undefined),GI50,786-0 renal,0.0642 µM
same,TGI,786-0 renal,1.98 µM
same,GI50,A498 renal,0.0875 µM
same,TGI,A498 renal,2.87 µM
same,GI50,A549 NSCLC,0.0844 µM
same,TGI,A549 NSCLC,1.78 µM
same,GI50,ACHN renal,0.213 µM
same,TGI,ACHN renal,1.89 µM
same,GI50,BT-549 breast,0.0738 µM
same,TGI,BT-549 breast,1.44 µM
same,GI50,CAKI-1 renal,0.128 µM
same,TGI,CAKI-1 renal,2.53 µM
same,GI50,CCRF-CEM leukemia,0.0173 µM
same,TGI,CCRF-CEM leukemia,0.0323 µM
same,GI50,DU-145 prostate,0.0371 µM
same,TGI,DU-145 prostate,1 µM
same,GI50,HCT-116 colon,0.049 µM
same,TGI,HCT-116 colon,34 µM
same,GI50,HCT-15 colon,0.0985 µM
same,TGI,HCT-15 colon,1.62 µM
same,TGI,HL-60(TB) leukemia,0.0166 µM
same,GI50,HOP-62 NSCLC,0.0421 µM
same,TGI,HOP-62 NSCLC,0.327 µM
same,GI50,HOP-92 NSCLC,0.142 µM
same,TGI,HOP-92 NSCLC,19.2 µM
same,GI50,HS 578T breast,0.122 µM
same,TGI,HS 578T breast,1.87 µM
same,GI50,HT29 colon,0.303 µM
same,TGI,HT29 colon,2.29 µM
same,GI50,IGROV1 ovarian,1.11 µM
same,TGI,IGROV1 ovarian,3.86 µM
same,GI50,K-562 leukemia,0.104 µM
same,TGI,K-562 leukemia,1.76 µM
same,GI50,KM12 colon,0.0996 µM
same,TGI,KM12 colon,1.7 µM
same,GI50,M14 melanoma,0.0732 µM
same,TGI,M14 melanoma,1.38 µM
same,GI50,MALME-3M melanoma,0.188 µM
same,TGI,MALME-3M melanoma,1.66 µM
same,GI50,MCF7 breast,0.0849 µM
same,TGI,MCF7 breast,7.56 µM
same,GI50,MDA-MB-231 breast,0.126 µM
same,TGI,MDA-MB-231 breast,2.1 µM
same,GI50,MDA-MB-435 melanoma,0.738 µM
same,TGI,MDA-MB-435 melanoma,2.63 µM
same,GI50,MDA-MB-468 breast,0.0299 µM
same,TGI,MDA-MB-468 breast,0.0859 µM
same,TGI,MOLT-4 leukemia,0.0104 µM
same,GI50,NCI-H226 lung,0.122 µM
same,TGI,NCI-H226 lung,1.19 µM
same,GI50,NCI-H23 lung,0.0603 µM
same,TGI,NCI-H23 lung,1.15 µM
same,GI50,NCI-H322M lung,2.42 µM
same,TGI,NCI-H322M lung,15.2 µM
same,GI50,NCI-H522 lung,0.101 µM
same,TGI,NCI-H522 lung,1 µM
same,GI50,NCI/ADR-RES ovarian,7.46 µM
same,TGI,NCI/ADR-RES ovarian,44.1 µM
same,GI50,OVCAR-3 ovarian,1.2 µM
same,TGI,OVCAR-3 ovarian,44.5 µM
same,GI50,OVCAR-4 ovarian,1.68 µM
same,TGI,OVCAR-4 ovarian,7.01 µM
same,GI50,OVCAR-5 ovarian,1.24 µM
same,TGI,OVCAR-5 ovarian,5.62 µM
same,GI50,OVCAR-8 ovarian,0.0733 µM
same,TGI,OVCAR-8 ovarian,1.81 µM
same,GI50,PC-3 prostate,1.02 µM
same,TGI,PC-3 prostate,4.02 µM
same,GI50,RPMI-8226 leukemia,0.0129 µM
same,TGI,RPMI-8226 leukemia,0.036 µM
same,GI50,RXF 393 renal,0.32 µM
same,TGI,RXF 393 renal,1.94 µM
same,GI50,SF-268 CNS,0.0702 µM
same,TGI,SF-268 CNS,2.11 µM
same,GI50,SF-295 CNS,0.0536 µM
same,TGI,SF-295 CNS,1.46 µM
same,GI50,SF-539 CNS,0.0731 µM
same,TGI,SF-539 CNS,1.34 µM
same,GI50,SK-MEL-2 melanoma,0.372 µM
same,TGI,SK-MEL-2 melanoma,0.991 µM
same,GI50,SK-MEL-28 melanoma,0.468 µM
same,TGI,SK-MEL-28 melanoma,2.02 µM
same,GI50,SK-OV-3 ovarian,0.107 µM
same,TGI,SK-OV-3 ovarian,5.44 µM
same,GI50,SN12C renal,0.0606 µM
same,TGI,SN12C renal,1.37 µM
same,GI50,SNB-19 CNS,0.0648 µM
same,TGI,SNB-19 CNS,11.9 µM
same,GI50,SNB-75 CNS,0.142 µM
same,TGI,SNB-75 CNS,1.29 µM
same,GI50,SW-620 colon,0.0753 µM
same,TGI,SW-620 colon,16.2 µM
same,GI50,T-47D breast,0.0962 µM
same,TGI,T-47D breast,2.57 µM
same,GI50,TK-10 renal,0.997 µM
same,TGI,TK-10 renal,5.09 µM
same,GI50,U251 glioblastoma,0.045 µM
same,TGI,U251 glioblastoma,10.4 µM
same,GI50,UACC-257 melanoma,0.404 µM
same,TGI,UACC-257 melanoma,1.74 µM
same,GI50,UACC-62 melanoma,0.0506 µM
same,TGI,UACC-62 melanoma,1.02 µM
same,GI50,UO-31 renal,1.48 µM
same,TGI,UO-31 renal,2.99 µM
